This is an account of results in PubChem BioAssay (NCI).

Among the test systems are A549 NSCLC; HL-60(TB) leukemia; HOP-62 NSCLC; KM12 colon; MALME-3M melanoma; OVCAR-3 ovarian; SK-MEL-28 melanoma; SNB-19 CNS; TK-10 renal; UO-31 renal.
What all share (experiment): inhibition of tumour cell growth, NCI panel, 48 h

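Where inhibition never reached the appropriate level, the endpoint shown equals the highest concentration tested. Otherwise, values were interpolated linearly from a five-concentration, 48-hour dose response in 96-well plates. The concentration for 50% growth inhibition is given as GI50. At the TGI there is no net growth.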

Regarding `O=C(Nc1ccc(CO)cc1)c1coc2ccccc2c1=O`, the GI50 with A549 NSCLC, in the test with HL-60(TB) leukemia, with HOP-62 NSCLC, in the test with KM12 colon, in the test with MALME-3M melanoma and in the test with OVCAR-3 ovarian was > 100 µM each time. The GI50 in the test with SK-MEL-28 melanoma, in the test with SNB-19 CNS, in the test with TK-10 renal and in the test with UO-31 renal was > 100 µM each time. Further, the TGI with A549 NSCLC, in the test on HL-60(TB) leukemia, in the test with HOP-62 NSCLC, in the test with KM12 colon, in the test with MALME-3M melanoma and in the test with OVCAR-3 ovarian was > 100 µM throughout. Also, the TGI in the test on SK-MEL-28 melanoma, with SNB-19 CNS, in the test on TK-10 renal and in the test with UO-31 renal was > 100 µM throughout.

For the compound `O=C(/C=C/c1cc(CN2CCOCC2)c(O)c2ncccc12)c1cc(CN2CCOCC2)c(O)c2ncccc12`, the GI50 was 0.0285 µM with A549 NSCLC; 0.0309 µM in the test with HL-60(TB) leukemia; 0.0335 µM in the test on HOP-62 NSCLC; 0.0437 µM with KM12 colon; 0.145 µM with MALME-3M melanoma; 0.0535 µM with OVCAR-3 ovarian. Further, the GI50 with SK-MEL-28 melanoma was 0.594 µM; in the test on SNB-19 CNS, 0.0482 µM; in the test with TK-10 renal, 0.0318 µM; with UO-31 renal, 0.0408 µM. Moreover, the TGI was > 100 µM in the test on A549 NSCLC; > 39 µM in the test with HOP-62 NSCLC; > 100 µM with KM12 colon; > 100 µM in the test with MALME-3M melanoma; > 100 µM with OVCAR-3 ovarian; > 100 µM in the test with SK-MEL-28 melanoma. Besides, the TGI in the test with SNB-19 CNS, in the test with TK-10 renal and in the test on UO-31 renal was > 100 µM each time.

For the compound `N#C/C(=C/N1CCN(C(=O)c2ccco2)C1=S)C(=O)c1ccccc1`, the GI50 was 22 µM with A549 NSCLC; 31.5 µM with HL-60(TB) leukemia; 22 µM in the test with HOP-62 NSCLC; 6.49 µM in the test with KM12 colon; 30.7 µM with MALME-3M melanoma; 18.2 µM with OVCAR-3 ovarian. Further, the GI50 in the test with SK-MEL-28 melanoma is 28 µM; in the test with SNB-19 CNS, 39.7 µM; in the test on TK-10 renal, 10.5 µM; with UO-31 renal, 10.2 µM. For the same compound, the TGI was 58.4 µM with A549 NSCLC; 91.5 µM in the test on HL-60(TB) leukemia; 47 µM in the test on HOP-62 NSCLC; > 100 µM in the test on KM12 colon; > 100 µM with MALME-3M melanoma; 57.2 µM in the test on OVCAR-3 ovarian. For the same compound, the TGI in the test on SK-MEL-28 melanoma is > 100 µM; with SNB-19 CNS, > 100 µM; in the test on TK-10 renal, 28.8 µM; with UO-31 renal it was 32.5 µM.

Turning to `CC(C)OC(=O)NNc1cc(Cl)ccc1Cl`, the TGI in the test with A549 NSCLC, in the test on HL-60(TB) leukemia, in the test with HOP-62 NSCLC, in the test with KM12 colon, with MALME-3M melanoma and in the test on OVCAR-3 ovarian was > 100 µM each time. Besides, the TGI with SK-MEL-28 melanoma, in the test on SNB-19 CNS, in the test on TK-10 renal and with UO-31 renal was > 100 µM in each case.

As for `Nc1nc(SN=Nc2ccc(S(N)(=O)=O)cc2)c2[nH]cnc2n1`, the GI50 was 3.06 µM with A549 NSCLC; 2.18 µM with HL-60(TB) leukemia; 0.62 µM with HOP-62 NSCLC; 1.64 µM in the test on KM12 colon; 1.87 µM in the test with MALME-3M melanoma; 0.511 µM with OVCAR-3 ovarian. Besides, the GI50 was 2.29 µM in the test with SK-MEL-28 melanoma, > 78.6 µM with SNB-19 CNS, 0.448 µM in the test on TK-10 renal and 0.455 µM in the test with UO-31 renal. The TGI in the test with A549 NSCLC was > 100 µM; with HL-60(TB) leukemia, > 53.6 µM; in the test with HOP-62 NSCLC, > 100 µM; in the test with KM12 colon it was 20 µM; in the test with MALME-3M melanoma, > 60.6 µM; in the test on OVCAR-3 ovarian, 7.93 µM. For the same compound, the TGI is > 52.5 µM in the test on SK-MEL-28 melanoma, > 100 µM in the test with SNB-19 CNS, 23.6 µM in the test with TK-10 renal and > 100 µM with UO-31 renal.

In the case of `COc1cc2ccc3c4cc(OC)c(OC(C)C)cc4cnc3c2cc1OC`, the TGI in the test with A549 NSCLC, with HL-60(TB) leukemia, with HOP-62 NSCLC, in the test with KM12 colon, with MALME-3M melanoma and in the test with OVCAR-3 ovarian was > 100 µM in each case. Besides, the TGI in the test on SK-MEL-28 melanoma, in the test with SNB-19 CNS, with TK-10 renal and in the test on UO-31 renal was > 100 µM in each case.

`C=C1C(=O)O[C@H]2[C@H]1CC/C(COC(=O)c1ccc(Cl)nc1)=C\CC[C@@]1(C)O[C@@H]21`: the GI50 in the test on A549 NSCLC is 11.3 µM; with HL-60(TB) leukemia, 1.57 µM; with HOP-62 NSCLC it was 11 µM; in the test on KM12 colon it was 3.96 µM; in the test on MALME-3M melanoma, 2.12 µM; in the test with OVCAR-3 ovarian, 1.03 µM. Besides, the GI50 in the test on SK-MEL-28 melanoma is 1.94 µM; in the test with SNB-19 CNS, 7.55 µM; in the test on TK-10 renal it was 2.86 µM; in the test with UO-31 renal, 1.37 µM. Also, the TGI in the test on A549 NSCLC amounted to 26.2 µM; in the test with HL-60(TB) leukemia, 4.72 µM; in the test with HOP-62 NSCLC, 26.3 µM; in the test on KM12 colon, 16.7 µM; with MALME-3M melanoma, 4.19 µM; in the test with OVCAR-3 ovarian it was 2.32 µM. For the same compound, the TGI in the test on SK-MEL-28 melanoma was determined as 4.9 µM; in the test on SNB-19 CNS it was 20.1 µM; with TK-10 renal, 6.77 µM; in the test with UO-31 renal it was 2.96 µM.

`O=C1c2ccc3c4ccccc4n(Cc4ccccc4)c3c2C(=O)N1c1ccccc1`: the TGI in the test on A549 NSCLC was 34.9 µM; with HL-60(TB) leukemia, > 44.7 µM; in the test with HOP-62 NSCLC, > 57.6 µM; in the test with KM12 colon, 30.6 µM; in the test on MALME-3M melanoma, 29.9 µM; in the test on OVCAR-3 ovarian it was 11.9 µM. The TGI with SK-MEL-28 melanoma came out at 31.3 µM; in the test with SNB-19 CNS, 42.3 µM; in the test on TK-10 renal, 29 µM; in the test on UO-31 renal it was 30.1 µM.

Consider `COc1ccc2c(c1)C(C)Cc1c(ncnc1-n1c(C)nc3ccccc31)N2C` (centres undefined), for which the GI50 with A549 NSCLC was 4.82 µM; in the test on HL-60(TB) leukemia it was 2.59 µM; in the test with HOP-62 NSCLC, 4.23 µM; in the test with KM12 colon, 2.59 µM; with MALME-3M melanoma, 11.3 µM; in the test with OVCAR-3 ovarian it was 2.53 µM. The GI50 was 11.1 µM in the test on SK-MEL-28 melanoma, 4.45 µM with SNB-19 CNS, 7.28 µM in the test with TK-10 renal and 4.59 µM in the test with UO-31 renal. The TGI in the test with A549 NSCLC amounted to 24.7 µM; with HL-60(TB) leukemia it was 9.7 µM; in the test on HOP-62 NSCLC, 24.6 µM; in the test with KM12 colon it was 17.8 µM; with MALME-3M melanoma it was 25.2 µM; in the test with OVCAR-3 ovarian it was 8.79 µM. Besides, the TGI with SK-MEL-28 melanoma was determined as 26.2 µM; with SNB-19 CNS, 23.1 µM; with TK-10 renal it was 45.9 µM; with UO-31 renal, 20.7 µM.
